Results on 12 compounds are retold here after patent US20240352013A1, “BICYCLIC FUSED PYRAZOLE DERIVATIVES FOR THE TREATMENT OF RESPIRATORY INFECTIONS INCLUDING RSV” (GEORGIA STATE UNIVERSITY RESEARCH FOUNDATION, INC., priority 2021, published 2024).

Read-outs that look alike come from different tables or passages of the source. A value given as a limit tells only on which side of the number the result lay.

A short description of data set [1]: Cytotoxicity assay (PrestoBlue) in HEp-2 cells. It is filed as cell-based, human. The note with it: human; HEp-2 cells, 48-hour incubation; max concentration tested. The protocol: (§1) To determine the effect of compound on cell metabolism, HEp-2 cells were seeded at 50% confluence in 96-well plates and were incubated with 3-fold serial dilution of compound from 5 or 50 μM as described, including positive and negative controls for normalization. After 48-hour incubation at 37° C., cells were incubated with PrestoBlue (ThermoFisher Scientific) for 1 hour at 37° C. and fluorescence measured with a H1 synergy plate reader (Biotek).
(§2) After 48-hour incubation at 37° C., cells were incubated with PrestoBlue (ThermoFisher Scientific, cat #A-13262) for 1 h at 37° C. and fluorescence measured with a H1 synergy plate reader (BioTek).

The test system of the next data set is HEp-2 cells. The data set is described as follows: Cytotoxicity assay (PrestoBlue) in HEp-2 cells. It counts as cell-based, human. The note with it: for cytotoxicity: FIG. 24; for CC50: HEp-2 cells, 48-hour incubation, max concentration tested. Here is the method:
as §1, §2

Data set [2] has as its system recRSV-fireSMASh. Put plainly: microbe, parasite or virus in culture. It is filed as cell-based. Particulars: human respiratory syncytial virus, HAE, read-out: “F1” HAE C50 (first).
For data set [3], the system named is recRSV-fireSMASh. Put plainly: microbe, parasite or virus in culture. Particulars: human respiratory syncytial virus, HAE, read-out: “M4” HAE C50 (first). It counts as cell-based.
In a further data set the test system is recRSV-fireSMASh L1502Q. The data set is described as follows: microbe, parasite or virus in culture. It counts as cell-based. The note with it: human respiratory syncytial virus; recombinant recRSV-fireSMASh, HEp-2, RSV L L1502Q.
For another data set, the system named is recRSV-fireSMASh Y1631H. Put plainly: microbe, parasite or virus in culture. It is filed as cell-based. The note with it: human respiratory syncytial virus; recombinant recRSV-fireSMASh, HEp-2, RSV L Y1631H.
Another data set has as its system recRSV-fireSMASh H1632Q. The data set is described as follows: microbe, parasite or virus in culture. It counts as cell-based. Particulars: human respiratory syncytial virus; recombinant recRSV-fireSMASh, HEp-2, RSV L H1632Q.
Data set [4] concerns recRSV-mKate harboring L1502Q. It counts as cell-based. Particulars: recRSV with LL1502Q relative to L WT.
Data set [5] deals with recRSV-mKate. The data set is described as follows: microbe, parasite or virus in culture. It is filed as cell-based. Particulars: 3D-HAE, progeny virus titers six days after infection, read-out: half-maximal effective concentration (EC50).
Another data set has as its system “F1” HAE. The note with it: “F1” donor primary HAE cells.
A further data set deals with “M4” HAE. The note with it: “M4” donor primary HAE cells.
For data set [6] the following is noted: 100 μM, previous studies; cited from earlier work.
The test system of a further data set is recRSV-A2line19F-[mKate]. Put plainly: In vivo efficacy in RSV-infected mice (lung viral titer). The note with it: for in vivo lung titer reduction in RSV-infected mice: oral gavage twice daily from 10 h post-infection, lungs 4.5 days after infection; for Lung viral load reduction (log10 TCID50/ml) relative to vehicle-treated: 50 mg/kg bid, therapeutic treatment 10 hours after infection, 4.5 days post-infection.

For data set [7], the system named is recRSV-mKate. Put plainly: Lung histopathology of RSV-infected mice. Particulars: 50 mg/kg initiated 12 hours after infection.
Description: Mice were divided randomly into groups of 5, and infected intranasally with 500,000 TCID50 (25 μl/nare) of recRSV-mKate in Phosphate-Buffered Saline. Mice were anesthetized with ketamine/xylazine. Treatments were administrated via oral gavage in a 200 μl suspension of 1% Methylcellulose in water. Temperature and body weight were determined on a daily and twice-daily basis, respectively. Efficacy studies were terminated at peak viral replication at 4.5 days post-infection, mice were euthanized and lungs harvested and weighted.
For histopathology, mice were subjected to cervical dislocation 4.5 days after infection and lungs perfused with 10% NBF prior to extraction. Lungs were stored in 10% NBF for 24 hours, followed by incubation in 70% EtOH for two days and embedding into wax blocks, using a 21-hour alcohol-xylene-wax embedding sequence. Blocks were sectioned at ˜4 μm thickness, sections mounted onto microscopy slides, and stained with hematoxylin and eosin (H&E). Slides were examined by a board-certified veterinary pathologist, who was blinded to the treatment groups. Lesions were scored according to the following scale. […]
For the next data set, the target named is measles virus polymerase (Measles virus, UniProt P12576). The note with it: found previously (45); cited from earlier work.
[8] abbreviates: orally 50 mg/kg b.i.d., starting 12 hours after infection, compared to vehicle-treated.

Sequence of measles virus polymerase (P03422 whole entry): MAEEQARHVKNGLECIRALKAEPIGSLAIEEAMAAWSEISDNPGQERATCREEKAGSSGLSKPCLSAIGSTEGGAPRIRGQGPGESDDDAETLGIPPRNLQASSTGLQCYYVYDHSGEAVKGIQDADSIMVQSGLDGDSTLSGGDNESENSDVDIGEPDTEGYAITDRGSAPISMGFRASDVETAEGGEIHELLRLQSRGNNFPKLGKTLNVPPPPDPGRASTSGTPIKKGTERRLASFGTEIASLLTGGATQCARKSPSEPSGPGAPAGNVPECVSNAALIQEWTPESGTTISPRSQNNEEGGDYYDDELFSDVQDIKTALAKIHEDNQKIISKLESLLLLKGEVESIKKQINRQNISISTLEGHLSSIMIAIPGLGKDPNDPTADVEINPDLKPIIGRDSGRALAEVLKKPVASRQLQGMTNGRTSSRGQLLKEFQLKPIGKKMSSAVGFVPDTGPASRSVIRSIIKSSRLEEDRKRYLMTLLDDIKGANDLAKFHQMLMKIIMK
Sequence of measles virus polymerase (P12576 whole entry): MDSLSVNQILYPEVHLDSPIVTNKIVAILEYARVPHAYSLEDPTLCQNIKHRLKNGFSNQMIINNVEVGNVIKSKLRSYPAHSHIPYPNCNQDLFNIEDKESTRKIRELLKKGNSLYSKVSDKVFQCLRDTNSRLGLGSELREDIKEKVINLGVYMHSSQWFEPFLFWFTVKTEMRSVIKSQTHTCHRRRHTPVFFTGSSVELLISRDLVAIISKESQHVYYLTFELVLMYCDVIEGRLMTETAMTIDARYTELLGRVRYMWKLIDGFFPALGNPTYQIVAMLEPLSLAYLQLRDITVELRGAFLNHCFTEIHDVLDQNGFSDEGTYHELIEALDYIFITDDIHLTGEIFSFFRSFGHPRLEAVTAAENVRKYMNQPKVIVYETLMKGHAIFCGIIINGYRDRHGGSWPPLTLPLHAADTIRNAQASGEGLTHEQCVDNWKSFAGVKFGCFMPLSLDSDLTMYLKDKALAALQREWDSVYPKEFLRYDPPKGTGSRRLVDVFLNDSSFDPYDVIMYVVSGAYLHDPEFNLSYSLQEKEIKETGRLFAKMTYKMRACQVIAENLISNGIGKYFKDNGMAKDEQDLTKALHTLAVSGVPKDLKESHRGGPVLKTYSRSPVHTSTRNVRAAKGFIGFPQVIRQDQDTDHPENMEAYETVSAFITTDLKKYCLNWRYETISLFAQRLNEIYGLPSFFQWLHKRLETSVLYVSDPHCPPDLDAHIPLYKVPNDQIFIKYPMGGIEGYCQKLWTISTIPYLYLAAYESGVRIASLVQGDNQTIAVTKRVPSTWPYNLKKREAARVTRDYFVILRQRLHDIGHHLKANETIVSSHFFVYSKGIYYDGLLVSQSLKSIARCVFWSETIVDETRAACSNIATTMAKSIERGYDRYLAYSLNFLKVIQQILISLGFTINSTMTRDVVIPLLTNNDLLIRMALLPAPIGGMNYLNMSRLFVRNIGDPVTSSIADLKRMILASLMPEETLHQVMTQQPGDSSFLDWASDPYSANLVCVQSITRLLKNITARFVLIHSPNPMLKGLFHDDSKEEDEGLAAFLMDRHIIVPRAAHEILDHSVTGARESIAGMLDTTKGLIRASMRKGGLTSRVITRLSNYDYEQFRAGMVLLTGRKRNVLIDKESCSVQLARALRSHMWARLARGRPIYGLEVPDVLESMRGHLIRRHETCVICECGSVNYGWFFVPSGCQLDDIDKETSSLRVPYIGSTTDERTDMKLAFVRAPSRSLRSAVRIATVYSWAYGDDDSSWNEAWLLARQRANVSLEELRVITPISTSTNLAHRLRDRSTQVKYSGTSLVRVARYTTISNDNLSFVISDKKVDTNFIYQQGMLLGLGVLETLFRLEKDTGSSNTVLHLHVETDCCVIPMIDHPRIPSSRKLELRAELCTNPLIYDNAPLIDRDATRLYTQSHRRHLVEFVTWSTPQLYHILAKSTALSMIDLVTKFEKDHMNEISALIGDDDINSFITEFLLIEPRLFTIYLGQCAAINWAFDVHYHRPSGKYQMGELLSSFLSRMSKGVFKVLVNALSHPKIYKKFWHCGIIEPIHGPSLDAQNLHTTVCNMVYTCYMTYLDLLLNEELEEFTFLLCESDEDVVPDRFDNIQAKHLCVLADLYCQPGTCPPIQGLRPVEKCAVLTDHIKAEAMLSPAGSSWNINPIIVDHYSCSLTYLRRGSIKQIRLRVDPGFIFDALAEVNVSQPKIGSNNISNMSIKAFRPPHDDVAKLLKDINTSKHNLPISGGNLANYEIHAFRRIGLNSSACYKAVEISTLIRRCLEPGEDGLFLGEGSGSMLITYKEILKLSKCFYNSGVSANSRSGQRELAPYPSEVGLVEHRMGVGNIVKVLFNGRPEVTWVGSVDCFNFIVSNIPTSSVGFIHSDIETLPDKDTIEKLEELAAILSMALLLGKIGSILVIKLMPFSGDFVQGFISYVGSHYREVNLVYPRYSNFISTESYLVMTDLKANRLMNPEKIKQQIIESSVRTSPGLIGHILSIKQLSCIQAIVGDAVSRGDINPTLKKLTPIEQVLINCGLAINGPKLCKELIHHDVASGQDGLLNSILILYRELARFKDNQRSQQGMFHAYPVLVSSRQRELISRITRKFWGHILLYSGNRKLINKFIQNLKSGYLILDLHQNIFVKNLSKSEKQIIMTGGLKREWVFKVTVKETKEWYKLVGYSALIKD
Description for recRSV-A2line19F-[mKate]: For efficacy studies, mice were randomly divided into groups (n=5) and infected intranasally with 5×10^5 TCID50 (25 μl per nare) of recRSV-A2line19F-[mKate] in PBS while under anesthesia with ketamine/xylazine. Treatment (compound or vehicle) was administrated at 10 h post-infection via oral gavage in a 200 μl suspension of 1% methylcellulose and administrated twice daily. Temperature and food consumption were monitored daily, body weight was determined twice daily. All animals were euthanized at 4.5 days after infection and lungs were harvested. To determine lung viral titers, lungs were weighted and homogenized with a bead beater in 300 μl PBS in 3 bursts of 20 seconds by 5-minute rest on ice after each cycle. Samples were clarified for 5 minutes at 4° C. and 20,000×g, supernatant aliquoted and stored at −80° C. before being titrated by median tissue culture infectious dose (TCID50) normalized per gram of lung tissue and per ml of lysate. RSV viral titers were determined using standard 50% tissue infective dose (TCID50) assay in HEp-2 cells and 96 well plates, with a Spearman and Karber based method using fluorescence for detection.
Mice were divided randomly into groups of 5, and infected intranasally with 500,000 TCID50 (25 μl/nare) of recRSV-mKate in Phosphate-Buffered Saline. Mice were anesthetized with ketamine/xylazine. Treatments were administrated via oral gavage in a 200 μl suspension of 1% Methylcellulose in water. Temperature and body weight were determined on a daily and twice-daily basis, respectively. Efficacy studies were terminated at peak viral replication at 4.5 days post-infection, mice were euthanized and lungs harvested and weighted. Lung viral titers were determined after tissue homogenization with a bead beater with 300 μl PBS (3 bursts of 30 seconds at 4° C., separated by 30-second rest at 4° C.). Homogenates were clarified (5 minutes at 4° C. and 20,000×g), aliquoted and stored at −80° C. until titration. Viral titers were determined by median tissue culture infectious dose (TCID50) titration, adjusted to weight (g) of lung tissue.

One may read the CC50 as the concentration that lowers cell viability or growth by half. As to `COc1ccc(Cn2c3cc(=O)n(Cc4cccc(Cl)n4)c(C)c3c(=O)n2-c2ccccn2)cc1` [AVG-233], the half-maximal cytotoxic concentration (CC50) at 48 h in [1] is above 45000 nM. For the same compound, the cytotoxicity result is given as “very low cytotoxicity” in the data set with HEp-2 cells and “well-tolerated without any signs of cytotoxicity” in data set [6]. The “HEp-2 C50 (second)” value in the data set on HEp-2 cells came out at 50 µM. Further, the EC50 with recRSV-fireSMASh [2] is 360 nM; in the data set with recRSV-fireSMASh [3], 110 nM; in the data set with recRSV-fireSMASh L1502Q, above 100000 nM; in the data set on recRSV-fireSMASh Y1631H, 2190 nM; in the data set on recRSV-fireSMASh H1632Q it was 4420 nM; with recRSV-mKate [5] (human respiratory syncytial virus, 144 h), 70 nM. The “increase in EC90” value in data set [4] was above 2000 fold. The ““F1” HAE C50 (second)” value in the data set on “F1” HAE was found to be 45 µM. In the data set with “M4” HAE, the ““M4” HAE C50 (second)” value was determined as 45 µM. Further, the “effect on tissue organization and tight junction integrity” value in the data set on 3D-HAE (200 μM, continued multi-day exposure, ZO-1 immunostaining and TEER) is “no negative effect on tissue organization and tight junction integrity”. In the data set with 3D-HAE (basolateral 5 μM, RSV-infected, 3 d.p.i.), the “effect on epithelium integrity” value is on record as “without detectable negative effect”. Moreover, the “in vivo lung titer reduction in RSV-infected mice” value (from here on “in vivo lung titer reduction”) with recRSV-A2line19F-[mKate] (50 mg/kg) was 50 mg/kg: −0.44 log 10.
Take `COc1c(F)c(F)c(Cn2c3cc(=O)n(Cc4cccc(C(F)(F)F)n4)c(C)c3c(=O)n2-c2ncc(F)cc2F)c(F)c1F` [AVG-388]: the CC50 at 48 h in data set [1] was above 45000 nM. Besides, the cytotoxicity result in the data set on HEp-2 cells is recorded as “very low cytotoxicity”. For the same compound, the “HEp-2 C50 (second)” value in the data set on HEp-2 cells came out at 10 µM. Moreover, the EC50 in the data set on recRSV-fireSMASh [2] is 130 nM; in the data set on recRSV-fireSMASh [3], 150 nM; in the data set with recRSV-fireSMASh L1502Q it was above 100000 nM; in the data set on recRSV-fireSMASh Y1631H it was 2720 nM; in the data set on recRSV-fireSMASh H1632Q, 4810 nM. Besides, in the data set with “F1” HAE, the ““F1” HAE C50 (second)” value was found to be 10 µM. Moreover, the ““M4” HAE C50 (second)” value in the data set on “M4” HAE was found to be 10 µM. For the same compound, the “disease progression to viral pneumonia (histopathology)” value in the data set on recRSV-mKate [7] is given as “prevented disease progression to viral pneumonia”. For the same compound, in the data set on recRSV-mKate [7], the “vasculitis and perivascular cuffing (histopathology)” value was “Only one animal of the AVG-388 group showed mild vasculitis and perivascular cuffing”. The “in vivo lung titer reduction” value is listed as 50 mg/kg: −1.3 log 10 in the data set with recRSV-A2line19F-[mKate] (50 mg/kg) and 150 mg/kg: −1.9 log 10 in the data set with recRSV-A2line19F-[mKate] (150 mg/kg). Moreover, the “reduction in lung viral load” value is 1.3 (±0.25) log 10 TCID50/ml with recRSV-A2line19F-[mKate] (setting [8]) and 1.9 (±0.23) log 10 TCID50/ml with recRSV-A2line19F-[mKate] (orally 150 mg/kg b.i.d.). Moreover, the “adverse effects (bodyweight and temperature)” value in the data set on recRSV-A2line19F-[mKate] (orally 150 mg/kg b.i.d.) is on record as “without any signs of adverse effects”.
Turning to `COc1c(F)c(F)c(Cn2c3cc(=O)n(Cc4cccc(Cl)n4)c(C)c3c(=O)n2-c2ccccn2)c(F)c1F` [AVG-389], in the data set on HEp-2 cells, the “HEp-2 C50 (second)” value came to 5 µM. The EC50 with recRSV-fireSMASh [2] came out at 160 nM; in the data set with recRSV-fireSMASh [3], 70 nM. Moreover, the ““F1” HAE C50 (second)” value with “F1” HAE is 45 µM. In addition, the ““M4” HAE C50 (second)” value in the data set on “M4” HAE came to 45 µM.
As for `COc1c(F)c(F)c(Cn2c3cc(=O)n(Cc4cccc(Cl)n4)c(C)c3c(=O)n2-c2ncc(F)cc2F)c(F)c1F` [AVG-390], the “HEp-2 C50 (second)” value in the data set on HEp-2 cells was 45 µM. Besides, the CC50 with HEp-2 cells was above 45000 nM. Besides, the EC50 with recRSV-fireSMASh [2] was 390 nM; in the data set with recRSV-fireSMASh [3], 250 nM. Besides, the ““F1” HAE C50 (second)” value with “F1” HAE came to 45 µM. In the data set with “M4” HAE, the ““M4” HAE C50 (second)” value was found to be 45 µM. In addition, the “Lung viral load reduction (log10 TCID50/ml) relative to vehicle-treated” value in the data set with recRSV-A2line19F-[mKate] was −0.5 log10 TCID50/ml. Also, in the data set on recRSV-A2line19F-[mKate] (50 mg/kg), the “in vivo lung titer reduction” value is 50 mg/kg: −0.50 log 10. Further, in the data set on recRSV-A2line19F-[mKate] (setting [8]), the “reduction in lung viral load” value was “slightly lower antiviral effect”.
As for `COc1ccc(Cn2c3cc(=O)n(Cc4cccc(Cl)n4)c(C)c3c(=O)n2-c2ncc(F)cc2F)cc1` [AVG-391], the “HEp-2 C50 (second)” value with HEp-2 cells was 45 µM. Besides, the EC50 in the data set with recRSV-fireSMASh [2] turned out to be 350 nM; in the data set on recRSV-fireSMASh [3] it was 300 nM. For the same compound, the ““F1” HAE C50 (second)” value in the data set with “F1” HAE is 45 µM. The ““M4” HAE C50 (second)” value with “M4” HAE amounted to 45 µM.
In the case of `COc1ccc(Cn2c3cc(=O)n(Cc4cccc(C(F)(F)F)n4)c(C)c3c(=O)n2-c2ncc(F)cc2F)cc1` [AVG-392], the “HEp-2 C50 (second)” value in the data set with HEp-2 cells stood at 45 µM. Moreover, the EC50 in the data set with recRSV-fireSMASh [2] turned out to be 920 nM; in the data set with recRSV-fireSMASh [3], 530 nM. In addition, the ““F1” HAE C50 (second)” value in the data set on “F1” HAE is 45 µM. Further, the ““M4” HAE C50 (second)” value in the data set with “M4” HAE turned out to be 45 µM.
`COc1c(F)c(F)c(Cn2c3cc(=O)n(Cc4cccc(C(F)(F)F)n4)c(C)c3c(=O)n2-c2ccccn2)c(F)c1F` [AVG-435]: in the data set on HEp-2 cells, the “HEp-2 C50 (second)” value stood at 5 µM and the CC50 was above 5000 nM. Also, the “Lung viral load reduction (log10 TCID50/ml) relative to vehicle-treated” value in the data set with recRSV-A2line19F-[mKate] is recorded as −0.44 log10 TCID50/ml. In addition, in the data set with recRSV-A2line19F-[mKate] (50 mg/kg), the “in vivo lung titer reduction” value is reported as 50 mg/kg: −0.44 log 10. For the same compound, in the data set with recRSV-A2line19F-[mKate] (setting [8]), the “reduction in lung viral load” value is listed as “did not observe as much benefit”.
In the case of `COc1ccc(Cn2c3cc(=O)n(Cc4cccc(C(F)(F)F)n4)c(C)c3c(=O)n2-c2ccccn2)cc1` [AVG-436], in the data set with HEp-2 cells, the “HEp-2 C50 (second)” value is 5 µM and the half-maximal cytotoxic concentration (CC50) is above 5000 nM. For the same compound, the “Lung viral load reduction (log10 TCID50/ml) relative to vehicle-treated” value in the data set with recRSV-A2line19F-[mKate] is −0.89 log10 TCID50/ml. Also, the “in vivo lung titer reduction” value with recRSV-A2line19F-[mKate] (50 mg/kg) was 50 mg/kg: −0.89 log 10. Moreover, in the data set on recRSV-A2line19F-[mKate] (setting [8]), the “reduction in lung viral load” value is reported as 0.89 (±0.14) log 10 TCID50/ml.
As for `Cc1c2c(=O)n(-c3ccccn3)n(Cc3c(Cl)cccc3Cl)c2cc(=O)n1Cc1cccc(C(F)(F)F)n1` [AVG-445], the “HEp-2 C50 (second)” value in the data set with HEp-2 cells was found to be 5 µM. Also, the 50% cytotoxic concentration (CC50) in the data set with HEp-2 cells was above 5000 nM. Moreover, the “Lung viral load reduction (log10 TCID50/ml) relative to vehicle-treated” value in the data set with recRSV-A2line19F-[mKate] is listed as −1.1 log10 TCID50/ml. Moreover, the entries for the “in vivo lung titer reduction” value in the data set on recRSV-A2line19F-[mKate] (50 mg/kg) and in the data set on recRSV-A2line19F-[mKate] (100 mg/kg) were 50 mg/kg: −1.1 log 10 and 100 mg/kg: −1.9 log 10, respectively. For the same compound, the “reduction in lung viral load” value in the data set on recRSV-A2line19F-[mKate] (setting [8]) is listed as 1.1 (±0.16) log 10 TCID50/ml.
For `Cc1c2c(=O)n(-c3ccccn3)n(Cc3c(Cl)cccc3Cl)c2cc(=O)n1Cc1cccc(C(F)(F)F)c1` [AVG-446], in data set [1], the CC50 at 48 h was above 5000 nM. Moreover, the “in vivo lung titer reduction” value is on record as 50 mg/kg: −0.61 log 10 with recRSV-A2line19F-[mKate] (50 mg/kg) and 100 mg/kg: −1.2 log 10 in the data set with recRSV-A2line19F-[mKate] (100 mg/kg).
As for `Cn1nc(C(F)(F)F)cc1C(=O)Nc1ccc(S(=O)(=O)N2CCCC[C@H]2CCN2CCOCC2)cc1` [ERDRP-0519], the phosphodiester bond formation entry on measles virus polymerase is on record as “completely blocks all phosphodiesterbond formation”.
Regarding `O=c1nc(NO)ccn1[C@@H]1O[C@H](CO)[C@@H](O)[C@H]1O` [NHC, reference compound], in the data set on recRSV-mKate [5], the EC50 stood at 50 nM.
